“Also recorded” adds a separate entry of the source.
Columns and labels:
[1] = system: gastric adenocarcinoma SGC-7901 cells; assay: MTT antiproliferative assay, SGC-7901; format: cell-based, human; settings: Homo sapiens, SGC-7901; MTT assay, 24 h exposure, triplicate; read-out: IC50 SGC-7901
Protocol: (§1) The SGC-7901, A549 and HT-1080 cell lines were purchased from the American Type Culture Collection (ATCC, Manassas, VA, USA). […] Briefly, approximately 3 × 10^4 cells were seeded in a 96-well plate. After 24 h of incubation at 37 °C, cells were exposed to compounds of differing concentrations for 24 h. After treatment, cells were washed with 1X PBS followed by addition of 100 µL of 0.05% MTT reagent to each well, followed by incubation for 4 h at 37 °C. After incubation, the supernatant from each well was carefully removed and the formazan crystals were dissolved in 100 µL of DMSO. The colour density was measured spectrophotometrically at 490 nm using a microplate reader (SpectraMax Plus384, Molecular Devices Corp., USA). The data were calculated and plotted as percent viability compared to control.
as §1

[2] = system: lung adenocarcinoma A549 cells; assay: MTT antiproliferative assay, A549; format: cell-based, human; settings: Homo sapiens, A549; MTT assay, 24 h exposure, triplicate; read-out: IC50 A549
Protocol: as §1, §1

[3] = system: SGC-7901, A549 and HT-1080 cell lines; assay: MTT antiproliferative assay, span over the three cell lines; format: cell-based, human; settings: MTT assay; for IC50: Homo sapiens, range over SGC-7901, A549 and HT-1080, read-out: IC50 range against the three human cancer cell lines
Protocol: as §1, §1

SGC-7901 cells = assay: Cell cycle analysis by flow cytometry; format: cell-based, human; settings: for cell cycle arrest: SGC-7901, 12 h, 6i 0.011, 0.022, 0.044 µM, CA-4 0.022 µM
Protocol: Thus, the effect of compound 6i on the cell cycle progression of the SGC-7901 cells was investigated by flow cytometry analysis (Fig. 5). […] Compound 6i could arrest cell cycle distribution at the G2/M phase in a dose-dependent manner.
Figure 5 Compound 6i affects the cell cycle progression in SGC-7901 cells.
Cell cycle analysis studies were performed by following a previously reported method. […] The cells were collected by centrifugation, washed with PBS and fixed in ice-cold 70% ethanol. The fixed cells were harvested by centrifugation and resuspended in 500 µl of PBS containing 1 mg/mL RNase. After 30 min of incubation at 37 °C, the cells were stained with […] propidium iodide (PI) at 4 °C in the dark for 30 min. The samples were then analyzed by FACScan flow cytometry (Becton-Dickinson, Franklin Lakes, NJ, USA). The experiments were repeated at least three times.
The cells were collected by centrifugation, washed with PBS and fixed in ice-cold 70% ethanol. The fixed cells were harvested by centrifugation and resuspended in 500 µl of PBS containing 1 mg/mL RNase. After 30 min of incubation at 37°C, the cells were stained with […] propidium iodide (PI) at 4°C in the dark for 30 min. The samples were then analyzed by FACScan flow cytometry (Becton-Dickinson, Franklin Lakes, NJ, USA). The experiments were repeated at least three times.
Figure S1 Compound 6i induced G2/M phase arrest in a time-dependent manner. SGC-7901 cells were treated with 6i (0.022 µM) for time 12, 24, 36, 48 and 60 h, then stained with PI and subjected to flow cytometric analysis.

[4] = target: colchicine-binding site on tubulin (Sus scrofa, UniProt P02554); assay: Competitive tubulin-binding assay (colchicine); settings: 5.0 µM colchicine; compound 1.6, 5.0, 15.0 µM
Protocol: To confirm whether these designed compounds could bind to the colchicine site on tubulin, compound 6i was investigated for its ability of competitive inhibition of colchicine binding[39],[40]. CA-4 and paclitaxel were used as a positive and a negative control, respectively.
Figure 6 Competitive binding of 6i to colchicine-binding site on tubulin.
For the colchicine competitive binding assay, tubulin was co-incubated with indicated concentrations of MPSP-001 and paclitaxel at 37 °C for 1 h. Then colchicine was added to a final concentration of 5 μmol L^−1. Fluorescence was determined using a Hitachi F-2500 spectrofluorometer (Tokyo, Japan) at the excitation wavelength of 365 nm and the emission wavelength of 435 nm. Blank values (buffer alone) as the background were subtracted from all samples. […] Paclitaxel, not binding in the colchicine site of tubulin, was added as a negative control. The experiments were repeated at least three times.
(5). Competitive tubulin-binding assay. For the colchicine competitive binding assay, tubulin was co-incubated with indicated concentrations of MPSP-001 and paclitaxel at 37 °C for 1 h. Then colchicine was added to a final concentration of 5 μmol L^−1. Fluorescence was determined using a Hitachi F-2500 spectrofluorometer (Tokyo, Japan) at the excitation wavelength of 365 nm and the emission wavelength of 435 nm. […]

| Compound | IC50 [1] | IC50 [2] | IC50 [3] | cell cycle arrest (SGC-7901 cells) | competition with colchicine: fluorescence of colchicine-tubulin complex [4] | antiproliferative activity in words ([3]; SGC-7901, A549 and HT-1080) | apoptosis after G2/M arrest (sub-G1) (SGC-7901 cells; SGC-7901, 6i 0.022 µM, 12-60 h) |
| --- | --- | --- | --- | --- | --- | --- | --- |
| COc1ccc(/C=C\c2cc(OC)c(OC)c(OC)c2)cc1O [CA-4, Combretastatin A-4, reference compound] | 11 nM | 9 nM | 9 to 13 nM | potent cell cycle arrests in G2/M phase | fluorescence of a colchicine-tubulin complex was reduced |  |  |
| COc1cccc(-c2nnc3n2N=C(c2ccc(OC)c(N)c2)CS3)c1 [Compound 6i, 3-(3-Methoxyphenyl)-6-(3-amino-4-methoxyphenyl)-7H-[1,2,4]triazolo[3,4-b][1,3,4]thiadiazine] | 11 nM | 15 nM | 11 to 15 nM | induced cell arrest in G2/M phase from 0 to 12 h; also recorded: potent cell cycle arrests in G2/M phase | fluorescence of a colchicine-tubulin complex was reduced | nanomolar IC50 values against all tested cells; also recorded: IC50 values at the nanomolar level | sub-G1 phase increase from 24 to 60 h; also recorded: cause subsequent apoptosis after G2/M arrest |

Reference: publication PMC5607265, “Design, synthesis and structure-activity relationship of 3,6-diaryl-7H-[1,2,4]triazolo[3,4-b][1,3,4]thiadiazines as novel tubulin inhibitors” (Scientific Reports, 2017)
